Assays:
Assay type in all cases: cell-based
human TLR7 = molecular target: T1, human TLR7 (Homo sapiens, UniProt Q9NYK1); test: TLR7 inhibition reporter assay (HEK-Blue cells, SEAP reporter, gardiquimod stimulation); conditions: HEK-Blue cells overexpressing human TLR7, SEAP reporter, gardiquimod 7.5 μM
T1 construct: host or cells: HEK-Blue cells (HEK293-derived reporter line)
T1 sequence (Q9NYK1 27-1049): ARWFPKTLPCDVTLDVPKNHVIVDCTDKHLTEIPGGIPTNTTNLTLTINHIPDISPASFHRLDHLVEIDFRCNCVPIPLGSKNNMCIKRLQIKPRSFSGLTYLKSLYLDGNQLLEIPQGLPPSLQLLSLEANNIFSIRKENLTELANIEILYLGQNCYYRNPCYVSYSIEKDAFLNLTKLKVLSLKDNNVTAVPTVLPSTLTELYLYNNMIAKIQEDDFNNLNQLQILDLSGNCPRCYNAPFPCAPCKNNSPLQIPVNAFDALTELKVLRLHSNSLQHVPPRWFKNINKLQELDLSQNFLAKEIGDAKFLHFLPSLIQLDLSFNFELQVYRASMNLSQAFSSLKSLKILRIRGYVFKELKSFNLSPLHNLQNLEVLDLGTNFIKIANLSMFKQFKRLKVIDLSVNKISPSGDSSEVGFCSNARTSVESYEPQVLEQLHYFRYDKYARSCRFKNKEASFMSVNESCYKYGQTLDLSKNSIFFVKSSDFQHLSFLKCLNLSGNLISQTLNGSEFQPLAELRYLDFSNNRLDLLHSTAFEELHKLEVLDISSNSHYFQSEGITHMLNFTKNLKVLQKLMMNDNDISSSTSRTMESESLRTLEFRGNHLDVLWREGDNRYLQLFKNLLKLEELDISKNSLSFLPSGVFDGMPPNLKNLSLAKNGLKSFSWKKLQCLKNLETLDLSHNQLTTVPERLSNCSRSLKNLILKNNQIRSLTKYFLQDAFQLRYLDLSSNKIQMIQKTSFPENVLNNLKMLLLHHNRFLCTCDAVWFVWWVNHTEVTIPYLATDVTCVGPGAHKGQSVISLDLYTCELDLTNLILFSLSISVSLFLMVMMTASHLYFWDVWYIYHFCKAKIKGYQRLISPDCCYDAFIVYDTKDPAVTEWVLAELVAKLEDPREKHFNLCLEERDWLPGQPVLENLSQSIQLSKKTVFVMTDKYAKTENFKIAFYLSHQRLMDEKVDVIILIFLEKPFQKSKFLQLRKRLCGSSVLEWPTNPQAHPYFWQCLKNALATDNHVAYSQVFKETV
Procedure, shortened: (§1)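 After 22 h at 37 °C, SEAP secretion was measured from human TLR7-, TLR8- or TLR9-expressing HEK-Blue reporter cells given compound (0.05 nM–50 μM) 30 min before agonist: 7.5 μM gardiquimod, 15.9 μM R848 or 5 nM ODN2006 respectively. Percent inhibition referenced to agonist-plus-DMSO and known-inhibitor wells.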

human TLR9 = molecular target: T2, human TLR9 (Homo sapiens, UniProt Q9NR96); test: TLR9 inhibition reporter assay (HEK-Blue cells, SEAP reporter, ODN2006 stimulation); conditions: HEK-Blue cells overexpressing human TLR9, SEAP reporter, ODN2006 5 nM
T2 construct: host or cells: HEK-Blue cells (HEK293-derived reporter line)
T2 sequence (Q9NR96 26-1032): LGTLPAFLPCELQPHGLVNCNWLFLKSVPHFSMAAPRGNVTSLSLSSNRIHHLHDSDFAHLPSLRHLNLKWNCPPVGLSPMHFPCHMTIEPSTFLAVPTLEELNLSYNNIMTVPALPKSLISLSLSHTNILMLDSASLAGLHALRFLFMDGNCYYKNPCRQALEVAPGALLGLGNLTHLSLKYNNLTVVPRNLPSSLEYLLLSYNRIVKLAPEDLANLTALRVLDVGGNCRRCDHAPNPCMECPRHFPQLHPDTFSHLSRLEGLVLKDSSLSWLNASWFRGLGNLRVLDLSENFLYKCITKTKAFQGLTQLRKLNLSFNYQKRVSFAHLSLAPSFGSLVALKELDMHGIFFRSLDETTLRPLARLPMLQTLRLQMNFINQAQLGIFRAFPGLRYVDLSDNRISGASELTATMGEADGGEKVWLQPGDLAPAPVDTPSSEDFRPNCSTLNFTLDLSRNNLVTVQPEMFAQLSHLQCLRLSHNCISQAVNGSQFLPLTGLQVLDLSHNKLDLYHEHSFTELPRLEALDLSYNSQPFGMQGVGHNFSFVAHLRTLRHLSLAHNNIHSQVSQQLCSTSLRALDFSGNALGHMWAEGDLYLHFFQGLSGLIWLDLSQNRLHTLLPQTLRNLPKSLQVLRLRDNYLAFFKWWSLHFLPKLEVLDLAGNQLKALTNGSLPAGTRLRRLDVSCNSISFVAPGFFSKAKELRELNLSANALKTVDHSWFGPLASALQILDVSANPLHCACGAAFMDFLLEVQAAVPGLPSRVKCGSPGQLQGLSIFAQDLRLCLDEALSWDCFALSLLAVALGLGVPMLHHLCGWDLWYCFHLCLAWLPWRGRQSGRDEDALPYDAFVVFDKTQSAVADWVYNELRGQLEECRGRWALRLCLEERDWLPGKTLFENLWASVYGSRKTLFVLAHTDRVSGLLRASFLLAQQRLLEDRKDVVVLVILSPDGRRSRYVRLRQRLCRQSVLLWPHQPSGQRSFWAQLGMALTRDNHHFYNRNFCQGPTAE
Procedure, shortened: as §1

human TLR8 = molecular target: T3, human TLR8 (Homo sapiens, UniProt Q9NR97); test: TLR8 inhibition reporter assay (HEK-Blue cells, SEAP reporter, R848 stimulation); conditions: HEK-Blue cells overexpressing human TLR8, SEAP reporter, R848 15.9 μM
T3 construct: host or cells: HEK-Blue cells (HEK293-derived reporter line)
T3 sequence (Q9NR97 27-1041): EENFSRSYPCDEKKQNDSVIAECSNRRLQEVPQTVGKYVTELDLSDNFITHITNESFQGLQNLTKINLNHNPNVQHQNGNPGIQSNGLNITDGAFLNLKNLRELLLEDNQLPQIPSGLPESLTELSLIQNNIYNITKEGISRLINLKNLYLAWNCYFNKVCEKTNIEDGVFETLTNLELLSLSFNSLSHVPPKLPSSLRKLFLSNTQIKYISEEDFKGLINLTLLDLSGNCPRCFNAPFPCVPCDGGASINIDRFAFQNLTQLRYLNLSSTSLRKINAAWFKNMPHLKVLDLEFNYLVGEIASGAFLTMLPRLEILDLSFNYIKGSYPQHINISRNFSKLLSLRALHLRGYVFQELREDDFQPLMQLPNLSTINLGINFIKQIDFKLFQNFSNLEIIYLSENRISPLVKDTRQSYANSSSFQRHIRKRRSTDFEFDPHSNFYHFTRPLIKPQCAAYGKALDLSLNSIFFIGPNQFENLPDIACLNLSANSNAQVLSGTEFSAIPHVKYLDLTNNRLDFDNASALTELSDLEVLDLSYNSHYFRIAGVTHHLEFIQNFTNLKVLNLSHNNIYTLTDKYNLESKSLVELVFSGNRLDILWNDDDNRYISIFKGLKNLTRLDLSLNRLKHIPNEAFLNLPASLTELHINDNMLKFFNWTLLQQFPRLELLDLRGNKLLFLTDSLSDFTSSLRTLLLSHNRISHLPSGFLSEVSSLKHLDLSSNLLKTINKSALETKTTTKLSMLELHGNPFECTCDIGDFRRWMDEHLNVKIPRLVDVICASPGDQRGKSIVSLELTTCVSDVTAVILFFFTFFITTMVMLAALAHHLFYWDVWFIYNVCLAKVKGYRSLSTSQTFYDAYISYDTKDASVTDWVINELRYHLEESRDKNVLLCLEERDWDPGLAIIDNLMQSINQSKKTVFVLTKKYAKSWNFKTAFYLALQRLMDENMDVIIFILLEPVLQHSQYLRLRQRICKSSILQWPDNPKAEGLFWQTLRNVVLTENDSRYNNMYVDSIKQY
Procedure, shortened: as §1

| SMILES | IC50 (human TLR7) [nM] | IC50 (human TLR9) [nM] | IC50 (human TLR8) [nM] |
| --- | --- | --- | --- |
| Cc1cc(-c2[nH]c3ccc(C4CCN(CC(=O)N(C)C)CC4)cc3c2C(C)C)cc2nccn12 [Example 354, 2-(4-(3-isopropyl-2-(5-methylimidazo[1,2-a]pyridin-7-yl)-1H-indol-5-yl)piperidin-1-yl)-N,N-dimethylacetamide] | 100 to 1000 | 100 to 1000 | 100 to 1000 |
| CCc1c(-c2ccc3onc(N)c3c2)[nH]c2ccc(C3CCNCC3)cc12 [Example 95, 5-(3-ethyl-5-(piperidin-4-yl)-1H-indol-2-yl)benzo[d]isoxazol-3-amine] | 1000 to 50000 | 1000 to 50000 | 100 to 1000 |
| Cc1cn2cc(-c3[nH]c4ccc(C5CCN(C(=O)CN(C)C)CC5)cc4c3C(C)C)cc(C)c2n1 [Example 509, 2-(dimethylamino)-1-(4-(2-(2,8-dimethylimidazo[1,2-a]pyridin-6-yl)-3-isopropyl-1H-indol-5-yl)piperidin-1-yl)ethan-1-one] | < 100 | 100 to 1000 | < 100 |
| CC(C)N1CCC(c2ccc3[nH]c(-c4ccc5nccn5c4)c(CC(F)F)c3c2)CC1 [Example 948, 6-(3-(2,2-difluoroethyl)-5-(1-isopropylpiperidin-4-yl)-1H-indol-2-yl)imidazo[1,2-a]pyridine] | < 100 | 100 to 1000 | 100 to 1000 |
| CC(=O)N1CCC(C(=O)N2CCC(c3ccc4[nH]c(-c5ccnc6[nH]ncc56)c(C(C)C)c4c3)CC2)CC1 [Example 646, 1-(4-(4-(3-isopropyl-2-(1H-pyrazolo[3,4-b]pyridin-4-yl)-1H-indol-5-yl)piperidine-1-carbonyl)piperidin-1-yl)ethan-1-one] | 100 to 1000 | 1000 to 50000 | < 100 |
| CNC(=O)CN1CCC(c2ccc3[nH]c(-c4ccnc5[nH]ncc45)c(CC(F)F)c3c2)CC1 [Example 387, 2-(4-(3-(2,2-difluoroethyl)-2-(1H-pyrazolo[3,4-b]pyridin-4-yl)-1H-indol-5-yl)piperidin-1-yl)-N-methylacetamide] | 100 to 1000 | 1000 to 50000 | < 100 |
| COc1cc2[nH]c(-c3ccnc4[nH]ncc34)c(C(C)C)c2cc1C1CCNCC1 [Example 255, 4-(3-isopropyl-6-methoxy-5-(piperidin-4-yl)-1H-indol-2-yl)-1H-pyrazolo[3,4-b]pyridine] | < 100 | 1000 to 50000 | 100 to 1000 |
| Cc1cc(-c2[nH]c3ccc(C4CCNCC4)cc3c2C(C)C)cc2ncc(O)nc12 [Example 87, 6-(3-isopropyl-5-(piperidin-4-yl)-1H-indol-2-yl)-8-methylquinoxalin-2-ol] | < 100 | 100 to 1000 | < 100 |
| CC(C)c1c(-c2ccnc3[nH]ncc23)[nH]c2ccc(C3CCN(C(=O)CNCC(C)(C)C)CC3)cc12 [Example 589, 1-(4-(3-isopropyl-2-(1H-pyrazolo[3,4-b]pyridin-4-yl)-1H-indol-5-yl)piperidin-1-yl)-2-(neopentylamino)ethan-1-one] | < 100 | 1000 to 50000 | < 100 |
| Cc1cc(-c2[nH]c3ccc(C4CCN(C5CCOCC5)CC4)cc3c2C(C)C)cn2ccnc12 [Example 705, 6-(3-isopropyl-5-(1-(tetrahydro-2H-pyran-4-yl)piperidin-4-yl)-1H-indol-2-yl)-8-methylimidazo[1,2-a]pyridine] | < 100 | 100 to 1000 | < 100 |

The remaining lines, values ahead:

| IC50 (human TLR7) [nM] | IC50 (human TLR9) [nM] | IC50 (human TLR8) [nM] | SMILES |
| --- | --- | --- | --- |
| < 100 | 1000 to 50000 | < 100 | CC(C)c1c(-c2n[nH]c3ncccc23)[nH]c2ccc(C3CCNCC3)cc12 [Example 18, 3-(3-isopropyl-5-(piperidin-4-yl)-1H-indol-2-yl)-1H-pyrazolo[3,4-b]pyridine] |
| < 100 | < 100 | < 100 | CNCCN1CCC(c2ccc3[nH]c(-c4ccc5ncnn5n4)c(C)c3c2)CC1 [Example 651, 2-(4-(2-([1,2,4]triazolo[1,5-b]pyridazin-6-yl)-3-methyl-1H-indol-5-yl)piperidin-1-yl)-N-methylethan-1-amine] |
| < 100 | 100 to 1000 | < 100 | Cc1n[nH]c2nccc(-c3[nH]c4ccc(C5CCNCC5)cc4c3C(C)C)c12 [Example 227, 4-(3-isopropyl-5-(piperidin-4-yl)-1H-indol-2-yl)-3-methyl-1H-pyrazolo[3,4-b]pyridine] |
| < 100 | 1000 to 50000 | < 100 | Cc1cc2nnnn2cc1-c1[nH]c2ccc(C3CCN(C4CCS(=O)(=O)CC4)CC3)cc2c1C(C)C [Example 791, 4-(4-(3-isopropyl-2-(7-methyltetrazolo[1,5-a]pyridin-6-yl)-1H-indol-5-yl)piperidin-1-yl)tetrahydro-2H-thiopyran 1,1-dioxide] |
| < 100 | 100 to 1000 | < 100 | CC(CN(C)C)CN1CCC(c2ccc3[nH]c(-c4ccnc5[nH]ncc45)c(C(C)C)c3c2)CC1 (stereo not drawn) [Example 846, 3-(4-(3-isopropyl-2-(1H-pyrazolo[3,4-b]pyridin-4-yl)-1H-indol-5-yl)piperidin-1-yl)-N,N,2-trimethylpropan-1-amine] |

Reference: patent US11739098B2 (BRISTOL-MYERS SQUIBB COMPANY, priority 2017, dated 2023)
